The values that follow come from patent US11642336B2, “5-HT2A agonists for use in treatment of depression” (priority 2019, dated 2023).

Each structure is given as a SMILES string. Counter-ions that a name gives are not always drawn. Like-named read-outs stand apart in the source and are kept apart here. Marks after values point to notes of the source that are not given here.

Common to all, as to type: cell-based
The target in test [1] is T1, human 5-HT2A (Homo sapiens (Human), UniProt P28223). In words: cell-based. As to conditions: for 5-HT2A Rmax ± S.E.M: % of the Rmax of 5-HT; for Selectivity EC50 5-HT2C/EC50 5-HT2A: Ca2+/Fluo-4 assay, bounds are conservative estimates.
A further test deals with 5-HT2C (Homo sapiens (Human), UniProt P28335). Briefly: Ca2+/Fluo-4 assay, stable h5-HT2C-HEK293 cell line.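 As to all read-outs here: Agonist-induced intracellular Ca2+ rise read by Fluo-4 fluorescence in HEK293 cells stably expressing the human 5-HT2C receptor, each compound run in duplicate on three or more occasions.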 As to conditions: for 5-HT2C agonist activity (n.a./w.a.): tested up to 50 μM; for EC50: read-out: 5-HT2C EC50.
Sequence of 5-HT2C (P28335 whole entry, looked up): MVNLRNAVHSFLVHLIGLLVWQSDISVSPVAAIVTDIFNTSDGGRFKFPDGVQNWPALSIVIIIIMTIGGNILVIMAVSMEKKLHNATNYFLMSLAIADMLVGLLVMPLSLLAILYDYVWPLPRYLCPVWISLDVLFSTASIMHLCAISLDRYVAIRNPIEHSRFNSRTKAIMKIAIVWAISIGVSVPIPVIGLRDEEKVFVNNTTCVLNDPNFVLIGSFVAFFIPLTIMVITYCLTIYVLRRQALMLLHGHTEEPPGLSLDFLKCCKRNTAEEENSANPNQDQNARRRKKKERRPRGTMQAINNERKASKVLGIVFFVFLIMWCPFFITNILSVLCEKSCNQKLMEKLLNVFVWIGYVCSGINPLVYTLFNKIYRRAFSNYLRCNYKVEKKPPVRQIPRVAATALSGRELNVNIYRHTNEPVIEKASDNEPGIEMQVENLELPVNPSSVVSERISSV
Test [2] concerns the target T1, human 5-HT2A. In words: cell-based. Particulars: IP assay; for 5-HT2A Rmax: % of Rmax of 5-HT; for EC50: duplicate determinations.
Another test concerns the target 5-HT2B (Homo sapiens (Human), UniProt P41595). Briefly: IP assay (Eurofins, IP1 HTRF), HEK293 cells.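 As to all read-outs here: agonist effect read as cellular IP1 production by HTRF using a europium cryptate anti-IP1 antibody donor and D2-labeled IP1 acceptor, eight compound concentrations in each cell line.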 Particulars: for 5-HT2B Rmax: % of Rmax of 5-HT; for Selectivity EC50 5-HT2B/EC50 5-HT2A: bounds are conservative estimates; for EC50: duplicate determinations, read-out: 5-HT2B EC50.
The mark [3] stands for this setting: agonist potency, n = 3-4, read-out: 5-HT2A EC50.
Where [4] appears, read: agonist potency, n = 3-4, read-out: 5-HT2A [pEC50 ± S.E.M.] (converted).

Sequence of 5-HT2B (P41595 whole entry, looked up): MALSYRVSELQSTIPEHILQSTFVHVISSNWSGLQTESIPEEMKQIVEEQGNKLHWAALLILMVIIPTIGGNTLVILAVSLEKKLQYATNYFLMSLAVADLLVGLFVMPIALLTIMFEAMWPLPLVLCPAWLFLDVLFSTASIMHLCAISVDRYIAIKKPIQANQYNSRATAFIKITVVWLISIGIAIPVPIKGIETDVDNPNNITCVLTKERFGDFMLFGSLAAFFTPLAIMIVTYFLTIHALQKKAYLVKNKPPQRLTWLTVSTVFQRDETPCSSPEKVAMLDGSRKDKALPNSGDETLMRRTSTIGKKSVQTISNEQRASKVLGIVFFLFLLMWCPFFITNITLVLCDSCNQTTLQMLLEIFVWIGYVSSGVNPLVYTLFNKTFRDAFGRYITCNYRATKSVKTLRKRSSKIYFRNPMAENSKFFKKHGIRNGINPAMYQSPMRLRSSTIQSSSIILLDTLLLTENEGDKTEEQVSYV
Experimental for 5-HT2B: The agonist properties of the compounds were characterized at HEK293 cell lines expressing the human 5-HT2A, human 5-HT2B or human 5-HT2C receptors in an IP assay essentially as previously described.^19 The testing was performed by Eurofins. In the assay, the agonist activity of the compound at the receptors is investigated by measuring its effect on IP1 production in the cell using the Homogeneous Time Resolved Fluorescence (HTRF) detection method. […] Following incubation, the cells were lysed, and the fluorescence acceptor (D2-labeled IP1) and fluorescence donor (anti-IP1 antibody labeled with europium cryptate) were added. […] The test compounds were characterized in eight different concentrations in duplicate at each of the three cell lines.
Experimental for 5-HT2C: The functional properties of the compounds were characterised at stable HEK293 cell lines stably expressing the human 5-HT2A receptor or human 5-HT2C receptor in the Ca^2+/Fluo-4 assay essentially as previously described.^10 Briefly, the cells were split into poly-D-lysine-coated black 96-well plates with clear bottoms (6×10^4 cells/well). The following day the culture medium was aspirated and the cells were incubated in 50 μl assay buffer [Hanks Buffered Saline Solution containing 20 mM HEPES, 1 mM CaCl2, 1 mM MgCl2, 2.5 mM probenecid, pH 7.4] supplemented with 6 mM Fluo-4/AM at 37° C. for 1 hour. Next, the buffer was aspirated, the cells were washed once with 100 μl assay buffer, and then 100 μl assay buffer was added to the cells (in the antagonist experiments the compound was added at this point). […] The compounds were characterized in duplicate at least three times at each cell line.

As to `COc1cc(C(F)(F)F)c(OC)cc1C1CCC(C)NC1` (single isomer, unassigned) [Compound 38, 5-(2,5-dimethoxy-4-(trifluoromethyl)phenyl)-2-methylpiperidine hydrochloride], the “5-HT2A Rmax ± S.E.M” value at human 5-HT2A [1] (hydrochloride) turned out to be 38 ± 4%. The “Selectivity EC50 5-HT2C/EC50 5-HT2A” value on human 5-HT2A [1] (hydrochloride) is >300^e. The EC50 at human 5-HT2A [1] (setting [3]) is 0.16 µM; at human 5-HT2A [1] (setting [4]), 0.155 µM; on human 5-HT2A [2], 0.12 µM; at 5-HT2B, 2.2 µM. The “5-HT2C agonist activity (n.a./w.a.)” value on 5-HT2C was “w.a”. In addition, the “5-HT2A Rmax” value at human 5-HT2A [2] (hydrochloride) was determined as 60%. At 5-HT2B (hydrochloride), the “5-HT2B Rmax” value is 29%. Also, the “Selectivity EC50 5-HT2B/EC50 5-HT2A” value at 5-HT2B (hydrochloride) was 18.

Consider `COc1cc([C@@H]2CCCNC2)c(OC)cc1SC.Cl` [Compound 18, (S)-3-(2,5-dimethoxy-4-(methylthio)phenyl)piperidine hydrochloride], for which the EC50 was 0.0257 µM on human 5-HT2A [1] (setting [4]); 0.51 µM on 5-HT2C (agonist potency, n = 3-4); 0.27 µM on human 5-HT2A [2]; 0.18 µM at 5-HT2B. Further, the “5-HT2A Rmax” value on human 5-HT2A [2] stood at 72%. The “5-HT2B Rmax” value at 5-HT2B is given as 64%.

On to `COc1cc(C(F)(F)F)c(OC)cc1[C@@H]1CNC[C@@H](C)C1.Cl` (relative stereo) [Compound 36, cis or trans 3-(2,5-dimethoxy-4-(trifluoromethyl)phenyl)-5-methylpiperidine hydrochloride], for which, at human 5-HT2A [1], the “5-HT2A Rmax ± S.E.M” value came out at 68 ± 2% and the “Selectivity EC50 5-HT2C/EC50 5-HT2A” value is reported as 8.2. The “5-HT2A [pEC50 ± S.E.M.]” value on human 5-HT2A [1] (agonist potency, n = 3-4) was “[7.32 ± 0.10]”. In addition, the EC50 on human 5-HT2A [1] (setting [3]) was 0.048 µM. Moreover, the “5-HT2C Rmax ± S.E.M” value on 5-HT2C (% of the Rmax of 5-HT) was 43 ± 6%. Further, at 5-HT2C (agonist potency, n = 3-4), the “5-HT2C [pEC50 ± S.E.M.]” value is “[6.40 ± 0.09]” and the EC50 stood at 0.4 µM. Moreover, at human 5-HT2A [2], the “5-HT2A Rmax” value is recorded as 61% and the EC50 was 0.041 µM. Moreover, on 5-HT2B, the “5-HT2B Rmax” value came to 39%, the “Selectivity EC50 5-HT2B/EC50 5-HT2A” value is on record as 2.9 and the EC50 stood at 0.12 µM.

As for `CCCCc1cc(OC)c([C@@H]2CCCNC2)cc1OC` [Compound 57, (S)-3-(4-butyl-2,5-dimethoxyphenyl)piperidine hydrochloride], the EC50 at human 5-HT2A [1] (setting [3]) turned out to be 0.27 µM. Moreover, the “5-HT2C agonist activity (n.a./w.a.)” value on 5-HT2C is given as “w.a”. Moreover, at human 5-HT2A [2], the “5-HT2A Rmax” value came to 62% and the EC50 amounted to 0.19 µM. Besides, on 5-HT2B, the “5-HT2B Rmax” value worked out at 18% and the EC50 amounted to 0.35 µM.

Consider `COc1cc([C@@H]2CCCNC2)c(OC)cc1C#N` [Compound 16, (S)-2,5-dimethoxy-4-(piperidin-3-yl)benzonitrile], for which the EC50 at human 5-HT2A [1] (setting [3]) is 0.27 µM; at human 5-HT2A [1] (setting [4]), 0.275 µM; at 5-HT2C (agonist potency, n = 3-4), more than 50 µM; at human 5-HT2A [2] it was 0.98 µM; on 5-HT2B it was 5 µM. Further, the “5-HT2A Rmax” value on human 5-HT2A [2] is on record as 77%. The “5-HT2B Rmax” value on 5-HT2B stood at 45%.

As for `COc1cc([C@@H]2CCCNC2)c(OC2CC2)cc1C(F)(F)F` [Compound 55, (S)-3-(2-cyclopropoxy-5-methoxy-4-(trifluoromethyl)phenyl)piperidine hydrochloride], at human 5-HT2A [1], the “5-HT2A Rmax ± S.E.M” value was 30 ± 5% and the “Selectivity EC50 5-HT2C/EC50 5-HT2A” value was >50^e. In addition, the EC50 at human 5-HT2A [1] (setting [3]) turned out to be 1.1 µM. The EC50 on human 5-HT2A [1] (setting [4]) was 1.07 µM. Moreover, on 5-HT2C, the “5-HT2C agonist activity (n.a./w.a.)” value was “w.a”. At human 5-HT2A [2], the “5-HT2A Rmax” value was determined as 38% and the EC50 was found to be 3 µM. Further, at 5-HT2B, the “Selectivity EC50 5-HT2B/EC50 5-HT2A” value was >30^c and the EC50 is more than 100 µM. Also, on 5-HT2B (up to 100 μM (Table 3)), the “5-HT2B agonist activity (n.a.)” value is “n.a. [@ 100 μM]^a > (no agonist activity: the compound did not evoke significant responses at concentrations up to 100 μM)”.

As for `COc1cc([C@@H]2CCCNC2)c(OC)cc1I` [Compound 14, (S)-3-(4-Iodo-2,5-dimethoxyphenyl)piperidine], the EC50 at human 5-HT2A [1] (setting [4]) was 0.0372 µM; at 5-HT2C (agonist potency, n = 3-4) it was more than 50 µM; on human 5-HT2A [2], 0.045 µM; on 5-HT2B, 0.17 µM. Besides, at human 5-HT2A [2], the “5-HT2A Rmax” value was 72%. Moreover, the “5-HT2B Rmax” value at 5-HT2B amounted to 57%.
